Measured values published in patent US20260240817A1, “COMPOSITIONS AND METHODS FOR TREATING CHARCOT-MARIE-TOOTH DISEASE” (priority 2023, published 2026).
“Also recorded” adds a separate entry of the source.

Legend:
CMT2D Gars^P278KY mice = experiment: In situ force and CMAP of triceps surae on sciatic nerve stimulation, CMT2D model; type: in vivo, mouse
Procedure: CMT2D Gars^P278KY mice (Jackson laboratories, stock 17540) were used (Spauling et al. 2016). All handling and use of animals complied with Danish Animal Welfare regulations (licence 2017-15-0201-01223). Animals were fed ad libitum, kept at 12 h light/dark condition at 21° C. and observed daily.
(§1) Mice were removed from their housing on the day of experiment and sedated with isoflurane (2-3%) dissolved in oxygen (supplied in a mask placed around the mouth and nose (Microvent 1, Hallowell EMC)) and placed on a heated mat. Sedation was ensured by testing the reflexes of the front limbs by tweezing them with a set of tweezers. Temperature was monitored by rectal probe. When fully sedated the Achilles tendon was blotted, tied by cotton string to a force transducer (Grass instruments) and cut distal to the cotton string, to allow recording of force from muscle of the lower limb. To record compound muscle action potentials (CMAP), two small needle electrodes were placed subcutaneously, one over the belly of the triceps surae muscle, and one at the distal part close to the tendon. To allow stimulation of the sciatic nerve, two stimulation needle electrodes were inserted at the base of the tail, one on each side of the sciatic nerve. Optimal placement was tested by applying short pulses via the stimulation electrodes, and assessing the resulting force and CMAP. When a stable response was obtained, electrodes were secured with tape, and the animal was allowed to rest for 10 minutes.
The single fibre measurements of EPP was performed in animals aged 8 to 15 weeks, whilst the in situ stimulation protocol part was performed in animals 37 weeks of age, from the same litter.
(§2) After optimal set-up and rest, the following stimulation paradigm was initiated: Every 30 seconds the sciatic nerve was stimulated at 8-12 Volt by pulses of 0.1 ms duration at 12 Hz with 10 pulses (12 Hz protocol). This was repeated 9 times after which a single stimulation at 120 Hz for 1 s was made. The 12 Hz protocol was then again repeated 9 times followed a stimulation at 30 Hz for 1 s. This cycle was repeated throughout the experiments providing recordings of force and CMAP at 120 Hz and 30 Hz every 10th minute interspaced by 12 Hz protocols every 30 second. When 3 consecutive measurements of 120 Hz were similar, NMD670 was administered I.V. (8 mg/kg dissolved in phosphate buffered saline at 2 mg/mL), while the stimulation paradigm continued. Animals were monitored for 6 hours after injection of NMD670. Force and CMAP were measured and digitalized by an AD converter (CED, UK,) and analysed in “Signal 6” (Cambridge Electronic Designs, UK). When analysing force traces, the peak amplitude of each twitch peak at 12 and 30 Hz was measured, and the baseline subtracted. The force at 30 and 120 Hz was also quantified as a force-time integral, or area under the curve (AUC). The CMAP recordings were quantified as the peak-to-peak levels for each CMAP in every train. The peak heights or CMAP levels were then expressed as ratios relative to the first CMAP peak in the train e.g. forth peak relative to 1st peak (T4/T1) and 10th peak relative to 1st peak (T10/T1).

[1] = system: soleus muscle fibres from CMT2D mice; experiment: Intracellular recordings of action potentials during repeated motor nerve stimulation, isolated soleus nerve-muscle preparations; type: cell-based, mouse
WT mice = experiment: In situ force and CMAP of triceps surae on sciatic nerve stimulation, wild type; type: in vivo, mouse
Source text: as §1, §2

[2] = Tablet dissolution (USP2 paddles, pH 6.8); type: physicochemical; settings: immediate release film-coated tablets; after a maximum of 60 minutes; USP2 paddles 75 RPM, 37° C., 900 ml pH 6.8
Procedure: Tablet dissolution was determined as follows. […] Dissolution Media pH 6.8 was prepared by dissolving 27.3g Na2HPO4·2H2O and 4.9 g Citric Acid in 1 L Milli-Q water. The pH was measured and adjusted if necessary to pH 6.8. 900 mL of dissolution media pH 6.8 was accurately transferred into each dissolution vessel. The apparatus was assembled, and the dissolution media was heated to 37° C.±0.5° C. The T=0 point was extracted from each vessel prior to dropping the tablets into the dissolution vessels. One tablet was gently dropped into each dissolution vessel, and rotation of the paddle was immediately started. Samples were taken that the sample extraction timepoints and analysed using the HPLC method.

[3] = system: soleus muscle fibres from CMT2D mice; type: cell-based, mouse; settings: 10 μM NMD670 added to CMT2D fibres, μ-Conotoxin-treated; vs before addition; 12, 30, 80 Hz trains
[4] = Gars^P278KY mice, after injection of NMD670
[5] = Gars^P278KY mice, after injection of NMD670, not fully normalized
[6] = Gars^P278KY, after 8 mg/kg i.v. (before 100)
[7] = Wild Type, after NMD670 (before 100)

SMILES: C[C@H](Oc1ccc(Br)cc1-c1ccon1)C(=O)O [NMD670, (2S)-2-[4-bromo-2-(1,2-oxazol-3-yl)phenoxy]propanoic acid]
- force, CMAP and relative force peaks (T4 or T10/T1) (CMT2D Gars^P278KY mice; Gars^P278KY mice, after 8 mg/kg NMD670 i.v., 12, 30, 120 Hz stimulation): less decrease in amplitudes; also recorded: improved; also recorded: increase
- T4/T1 and T10/T1 ratios of twitch force (CMT2D Gars^P278KY mice; [4]): normalization
- increase in absolute twitch force (CMT2D Gars^P278KY mice; [4]): 25%
- increase of force during 30 Hz stimulation (CMT2D Gars^P278KY mice; [5]): 21%
- increase of force during 120 Hz stimulation (CMT2D Gars^P278KY mice; [5]): 30%
- Twitch force (CMT2D Gars^P278KY mice; Gars^P278KY, after 8 mg/kg NMD670 i.v. (before 6.06 ± 0.8)): 7.5 ± 1.1 g
- Twitch force relative to BW (CMT2D Gars^P278KY mice; Gars^P278KY, after 8 mg/kg i.v. (before 0.42 ± 0.05)): 0.51 ± 0.05
- 12 Hz Ratios CMAP T10/T1 (CMT2D Gars^P278KY mice; Gars^P278KY, after 8 mg/kg i.v. (before 63.5 ± 4.91)): 76.1 ± 4.37
- 12 Hz Ratios CMAP T4/T1 (CMT2D Gars^P278KY mice; Gars^P278KY, after 8 mg/kg i.v. (before 75.5 ± 2.8)): 86.3 ± 2.44
- Force 12 Hz Ratios T10/T1 (CMT2D Gars^P278KY mice; Gars^P278KY, after 8 mg/kg i.v. (before 82.0 ± 6.0)): 93.8 ± 5.7%
- EMG (CMAP) 30 Hz 5/1 (CMT2D Gars^P278KY mice; Gars^P278KY, after 8 mg/kg i.v. (before 82.4 ± 3.3)): 95.3 ± 2.4
- EMG (CMAP) 120 Hz 5/1 (CMT2D Gars^P278KY mice; Gars^P278KY, after 8 mg/kg i.v. (before 83.8 ± 13.9)): 102.0 ± 4.3
- Force 12 Hz Ratios T4/T1 (CMT2D Gars^P278KY mice; Gars^P278KY, after 8 mg/kg i.v. (before 88.2 ± 5.1)): 97.8 ± 5.0%
- Force 30 Hz AUC (% of initial) (CMT2D Gars^P278KY mice; [6]): 124.1 ± 3.7 % of initial
- Force 120 Hz AUC (% of initial) (CMT2D Gars^P278KY mice; [6]): 136.7 ± 29.9 % of initial
- fibres unable to sustain action potential generation for the entire stimulus train ([1]; 12 Hz, after 10 μM NMD670, 3/47 fibres (before 6/60, 10%)): 6,4%
- average action potential excitation failure ([1]; 12 Hz, after addition of 10 μM NMD670 (before 3.6)): 1.9%
- fibres unable to sustain action potential generation for the entire stimulus train ([1]; 30 Hz, after 10 μM NMD670, 3/47 fibres (before 9/60, 15%)): 6.4%
- average action potential excitation failure ([1]; 30 Hz, after addition of 10 μM NMD670 (before 4.9)): 0.8%
- fibres unable to sustain action potential generation for the entire stimulus train ([1]; 80 Hz, after 10 μM NMD670, 20/47 fibres (before 33/60, 55%)): 42.5%
- average action potential excitation failure ([1]; 80 Hz, after addition of 10 μM NMD670 (before 29.6)): 20.4%
- increase of ratio of the 5th and 1st CMAP peaks (WT mice; WT mice after injection of NMD670, 30 and 80 Hz stimulations as printed): not significantly different
- Twitch force relative to BW (WT mice; Wild Type, after NMD670 (before 1.08 ± 0.01)): 1.06 ± 0.02
- Twitch force (WT mice; Wild Type, after NMD670 (before 21.6 ± 1.3)): 22.2 ± 2.3 g
- Force 12 Hz Ratios T4/T1 (WT mice; Wild Type, after NMD670 (before 96.6 ± 1.3)): 97.7 ± 06%
- Force 12 Hz Ratios T10/T1 (WT mice; Wild Type, after NMD670 (before 97.3 ± 0.6)): 99.2 ± 0.3%
- Force 30 Hz AUC (% of initial) (WT mice; [7]): 102.9 ± 1.9 % of initial
- Force 120 Hz AUC (% of initial) (WT mice; [7]): 100.7 ± 2.7 % of initial
- 12 Hz Ratios CMAP T4/T1 (WT mice; Wild Type, after NMD670 (before 102.2 ± 0.9)): 103.1 ± 0.2
- 12 Hz Ratios CMAP T10/T1 (WT mice; Wild Type, after NMD670 (before 102.8 ± 0.1)): 102.8 ± 2.2
- EMG (CMAP) 30 Hz 5/1 (WT mice; Wild Type, after NMD670 (before 105.8 ± 3.1)): 119.0 ± 11.6
- EMG (CMAP) 120 Hz 5/1 (WT mice; Wild Type, after NMD670 (before 110.2 ± 6.5)): 123.5 ± 20.6
- NMD670 released from the tablets [2]: Not less than 80%
- EPP amplitude [3]: significant increase; also recorded: small non-significant increase
